Measurements: patent US20200216416A1, “QUINOLINE COMPOUNDS AS INHIBITORS OF TAM AND MET KINASES” (Array BioPharma Inc., priority 2019, published 2020)

Key:
[1] = biological target: T1, GST-tagged recombinant human TYRO3 kinase domain (Homo sapiens, UniProt Q06418); assay: TYRO3 Enzyme Assay (LanthaScreen Eu Kinase Binding); settings: averaged IC50; TYRO3 5 nM; 60-minute incubation at 22° C.; TR-FRET
T1 construct: GST-tagged recombinant human TYRO3 kinase domain; purchased Carna PR7480A
T1 sequence (Q06418 518-790 limits assumed): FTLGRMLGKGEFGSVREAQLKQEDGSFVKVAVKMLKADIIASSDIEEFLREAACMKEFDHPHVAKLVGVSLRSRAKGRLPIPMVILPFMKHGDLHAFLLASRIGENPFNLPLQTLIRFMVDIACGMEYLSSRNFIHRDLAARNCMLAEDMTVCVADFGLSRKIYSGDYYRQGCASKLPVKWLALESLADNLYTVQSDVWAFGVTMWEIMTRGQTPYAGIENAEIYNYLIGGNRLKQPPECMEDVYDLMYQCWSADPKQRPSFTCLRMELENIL
Procedure, shortened: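 Competitive tracer-displacement TR-FRET: 5 nM kinase, 20 nM Alexa-Fluor Tracer 236 and 2 nM Eu-anti-GST with threefold-diluted compound in 25 mM HEPES pH 7.4, 10 mM MgCl2, 0.01% Triton X-100, 2% DMSO, 60 min at 22° C. Ratiometric percent of control fitted to a 4-parameter logistic; IC50 at 50 POC.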

[2] = biological target: T2, human MET kinase F1200I (Homo sapiens, UniProt P08581, F1200I); assay: c-Met Enzyme Assay, F1200I mutant; assay type: binding; settings: averaged IC50; F1200I 2 nM; 60-minute incubation at 22° C.
T2 construct: GST-tagged recombinant human MET kinase domain; purchased Signal Chem
T2 sequence (P08581 1078-1345 F1200I limits assumed): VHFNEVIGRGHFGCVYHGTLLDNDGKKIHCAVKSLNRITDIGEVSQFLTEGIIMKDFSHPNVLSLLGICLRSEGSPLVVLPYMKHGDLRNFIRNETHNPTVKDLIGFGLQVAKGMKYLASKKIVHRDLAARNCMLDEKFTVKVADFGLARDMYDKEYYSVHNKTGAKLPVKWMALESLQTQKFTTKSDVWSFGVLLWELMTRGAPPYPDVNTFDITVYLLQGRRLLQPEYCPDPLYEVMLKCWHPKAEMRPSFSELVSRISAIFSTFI
Description: (§1) The affinity of compound binding to wild type and mutant human MET kinases was measured using Invitrogen's LanthaScreen™ Eu Kinase Binding technology. Briefly, GST-tagged recombinant human MET kinase domain from Signal Chem (see Table 8 below for concentration in assay) was incubated with 50 nM Alexa-Fluor® Tracer 236 (Invitrogen Cat No. PR9078A) and 2 nM Europium-anti-GST (Invitrogen Cat. No. A15116) along with test compound in a buffer consisting of 25 mM HEPES, pH 7.4, 10 mM MgCl2, 0.01% Triton X-100, 1mM DTT, and 2% DMSO. Compounds were typically prepared in a three-fold serial dilution in DMSO and added to the assay to give the appropriate final concentration. After a 60-minute incubation at 22° C., the reaction was measured using a PerkinElmer EnVision multimode plate reader via TR-FRET dual wavelength detection, and the percent of control (POC) calculated using a ratiometric emission factor. […] The POC values were fit to a 4 parameter logistic curve and the IC50 value is point where the curve crosses 50 POC.

[3] = biological target: T3, human MET kinase L1195V (Homo sapiens, UniProt P08581, L1195V); assay: c-Met Enzyme Assay, L1195V mutant; assay type: binding; settings: averaged IC50; L1195V 10 nM; 60-minute incubation at 22° C.
T3 construct: GST-tagged recombinant human MET kinase domain; purchased Signal Chem
T3 sequence (P08581 1078-1345 L1195V limits assumed): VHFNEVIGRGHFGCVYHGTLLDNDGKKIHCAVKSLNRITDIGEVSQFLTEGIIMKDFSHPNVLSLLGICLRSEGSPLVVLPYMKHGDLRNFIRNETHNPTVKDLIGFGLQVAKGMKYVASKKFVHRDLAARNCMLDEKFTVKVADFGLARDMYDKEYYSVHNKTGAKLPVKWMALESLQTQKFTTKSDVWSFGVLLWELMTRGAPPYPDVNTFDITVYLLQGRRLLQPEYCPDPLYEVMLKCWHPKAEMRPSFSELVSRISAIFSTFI
Description: as §1

[4] = biological target: T4, human MET kinase D1228N (Homo sapiens, UniProt P08581, D1228N); assay: c-Met Enzyme Assay, D1228N mutant; assay type: binding; settings: averaged IC50; D1228N 2 nM; 60-minute incubation at 22° C.; read-out: D1228 N IC50
T4 construct: GST-tagged recombinant human MET kinase domain; purchased Signal Chem
T4 sequence (P08581 1078-1345 D1228N): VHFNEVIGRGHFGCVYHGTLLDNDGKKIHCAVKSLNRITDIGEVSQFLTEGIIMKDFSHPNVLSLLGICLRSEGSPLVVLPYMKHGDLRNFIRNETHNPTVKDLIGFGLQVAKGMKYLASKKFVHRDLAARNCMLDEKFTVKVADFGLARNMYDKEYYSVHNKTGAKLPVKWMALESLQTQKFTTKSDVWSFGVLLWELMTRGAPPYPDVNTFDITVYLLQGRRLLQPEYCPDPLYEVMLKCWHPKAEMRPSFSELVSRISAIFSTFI
Description: as §1

| Structure (SMILES) | IC50 [1] [µM] | IC50 [2] [µM] | IC50 [3] [µM] | IC50 [4] [µM] |
| --- | --- | --- | --- | --- |
| COc1cc2nccc(Oc3ccc(NC(=O)c4cn(C(C)C)c(C)c(-c5ccc(F)cc5)c4=O)nc3)c2cc1OC [Example 27, N-(5-((6,7-dimethoxyquinolin-4yl)oxy)pyridin-2-yl)-5-(4-fluorophenyl)-1-isopropyl-6-methyl-4-oxo-1,4-dihydropyridine-3-carboxamide] | 0.003 | 0.0016 | 0.0029 | 0.002 |
| COc1cc2nccc(Oc3ccc(NC(=O)c4cn(CC(=O)N5CCCC5)cc(-c5ccc(F)cc5F)c4=O)nc3)c2cc1OC [Example 14] | 0.129 | 0.0124 | 0.187 | 0.0306 |
| CCC(CC)n1cc(C(=O)Nc2ccc(Oc3ccnc4cc(OC)c(OC)cc34)cn2)c(=O)c(-c2ccc(F)cc2F)c1 [Example 16, 5-(2,4-difluorophenyl)-N-(5-((6,7-dimethoxyquinolin-4yl)oxy)pyridin-2-yl)-4-oxo-1-(pentan-3-yl)-1,4-dihydropyridine-3-carboxamide] | 0.011 | 0.0068 | 0.0346 | 0.0081 |
| COc1cc2nccc(Oc3ccc(NC(=O)c4cn(CC(=O)N(C)C)cc(-c5ccc(F)cc5F)c4=O)nc3)c2cc1OC [Example 13, 5-(2,4-difluorophenyl)-N-(5((6,7-dimethoxyquinolin-4-yl)oxy)pyridin-2-yl)-1-(2-(dimethylamino)-2-oxoethyl)-4-oxo-1,4-dihydropyridine-3-carboxamide] | 0.022 | 0.0048 | 0.0838 | 0.0116 |
| COc1cc2nccc(Oc3ccc(NC(=O)c4cn(CC(=O)N(C)C)cc(-c5ccc(Cl)cc5)c4=O)nc3)c2cc1OC [Example 25] | 0.054 | 0.0115 | 0.0187 | 0.0378 |
| COc1cc2nccc(Oc3cnc(NC(=O)c4cn(C(C)C)c(C)c(-c5ccc(F)cc5)c4=O)nc3)c2cc1OC [Example 55, N-(5-((6,7-dimethoxyquinolin-4-yl)oxy)pyrimidin-2-yl)-5-(4-fluorophenyl)-1-isopropyl-6-methyl-4-oxo-1,4-dihydropyridine-3-carboxamide] | 0.008 | 0.0034 | 0.0051 | 0.0034 |
| COc1cc2nccc(Oc3ccc(NC(=O)c4cn(C(C)C)cc(-c5ccc(F)cc5C)c4=O)nc3)c2cc1OC [Example 19, N-(5-((6,7-dimethoxyquinolin-4yl)oxy)pyridin-2-yl)-5-(4-fluoro-2-methylphenyl)-1-isopropyl-4-oxo-1,4-dihydropyridine-3-carboxamide] | 0.004 | 0.0028 | 0.01 | 0.0036 |
| COc1ccc(-c2cn(C(C)C)cc(C(=O)Nc3ccc(Oc4ccnc5cc(OC)c(OC)cc45)cn3)c2=O)c(F)c1 [Example 31, N-(5-((6,7-dimethoxyquinolin-4yl)oxy)pyridin-2-yl)-5-(2-fluoro-4-methoxyphenyl)-1-isopropyl-4-oxo-1,4-dihydropyridine-3-carboxamide] | 0.023 | 0.0465 | 0.0591 | 0.0627 |
| COc1cc2nccc(Oc3ccc(NC(=O)c4cn(C(C)C)cc(-c5ccc(F)cc5Cl)c4=O)nc3)c2cc1OC [Example 18, 5-(2-chloro-4-fluorophenyl)-N-(5-((6,7-dimethoxyquinolin-4-yl)oxy)pyridin-2-yl)-1-isopropyl-4-oxo-1,4-dihydropyridine-3-carboxamide] | 0.004 | 0.0043 | 0.0214 | 0.0047 |
| COc1cc2c(Oc3ccc(NC(=O)c4cn(C(C)C)c(C)c(-c5ccc(F)cc5)c4=O)nc3)ccnc2cc1F [Example 48, N-(5-((7-fluoro-6-methoxyquinolin-4yl)oxy)pyridin-2-yl)-5-(4-fluorophenyl)-1-isopropyl-6-methyl-4-oxo-1,4-dihydropyridine-3-carboxamide] | 0.01 | 0.0054 | 0.0317 | 0.0146 |
| COc1cc(-c2cn(C(C)C)cc(C(=O)Nc3ccc(Oc4ccnc5cc(OC)c(OC)cc45)cn3)c2=O)ccc1F [Example 20, N-(5-((6,7-dimethoxyquinolin-4yl)oxy)pyridin-2-yl)-5-(4-fluoro-3-methoxyphenyl)-1-isopropyl-4-oxo-1,4-dihydropyridine-3-carboxamide] | 0.006 | 0.0051 | 0.0581 | 0.0104 |
| COc1cc2nccc(Oc3ccc(NC(=O)c4cn(CCC(C)C)cc(-c5ccc(Cl)cc5)c4=O)nc3)c2cc1OC [Example 37] | 0.03 | 0.0164 | 0.0232 | 0.0168 |
| COc1ccc(-c2cn(C(C)C)cc(C(=O)Nc3ccc(Oc4ccnc5cc(OC)c(OC)cc45)cn3)c2=O)cc1 [Example 30, N-(5-((6,7-dimethoxyquinolin-4yl)oxy)pyridin-2-yl)-1-isopropyl-5-(4-methoxyphenyl)-4-oxo-1,4-dihydropyridine-3-carboxamide] | 0.02 | 0.0591 | 0.0399 | 0.1 |
| COc1ccc2nccc(Oc3ccc(NC(=O)c4cn(CCN(C)C)cc(-c5ccc(F)cc5)c4=O)nc3)c2c1 [Example 47] | 0.056 | 0.0085 | 0.414 | 0.0297 |
| CCCC(CCC)n1cc(C(=O)Nc2ccc(Oc3ccnc4cc(OC)c(OC)cc34)cn2)c(=O)c(-c2ccc(F)cc2F)c1 [Example 17, 5-(2,4-difluorophenyl)-N-(5-((6,7-dimethoxyquinolin-4yl)oxy)pyridin-2-yl)-1-(heptan-4-yl)-4-oxo-1,4-dihydropyridine-3-carboxamide] | 0.076 | 0.0234 | 0.0826 | 0.025 |
| CCCn1cc(C(=O)Nc2ccc(Oc3ccnc4cc(OC)c(OC)cc34)cn2)c(=O)c(-c2ccc(F)cc2)c1 [Example 10, N-(5((6,7-dimethoxyquinolin-4-yl)oxy)pyridin-2-yl)-5-(4-fluorophenyl)-4-oxo-1-propyl-1,4-dihydropyridine-3-carboxamide] | 0.015 | 0.0042 | 0.0097 | 0.0041 |
| COc1cc2nccc(Oc3ccc(NC(=O)c4cn(CCC(C)C)cc(-c5ccc(F)cc5F)c4=O)nc3)c2cc1OC [Example 36, 5-(2,4-difluorophenyl)-N-(5-((6,7-dimethoxyquinolin-4yl)oxy)pyridin-2-yl)-1-isopentyl-4-oxo-1,4-dihydropyridine-3-carboxamide] | 0.014 | 0.0032 | 0.0144 | 0.0048 |
| COc1cc2c(Oc3ccc(NC(=O)c4cn(C(C)C)cc(-c5ccc(F)cc5)c4=O)nc3)ccnc2cc1OCCCN1CCOCC1 [Example 56, 5-(4-fluorophenyl)-1-isopropyl-N-(5-((6-methoxy-7-(3-morpholinopropoxy)quinolin-4-yl)oxy)pyridin-2-yl)-4-oxo-1,4-dihydropyridine-3-carboxamide] | 0.01 | 0.005 | 0.0053 | 0.0043 |
| COc1cc2nccc(Oc3ccc(NC(=O)c4cn(C(C)C)cc(-c5ccc(F)c(Cl)c5)c4=O)nc3)c2cc1OC [Example 21, 5-(3-chloro-4-fluorophenyl)-N-(5-((6,7-dimethoxyquinolin-4-yl)oxy)pyridin-2-yl)-1-isopropyl-4-oxo-1,4-dihydropyridine-3-carboxamide] | 0.026 | 0.0162 | 0.0777 | 0.031 |
| COc1cc2nccc(Oc3ccc(NC(=O)c4cn(C(C)C)cc(-c5ccc(F)cc5)c4=O)cn3)c2cc1OC [Example 58, N-(6-((6,7-dimethoxyquinolin-4-yl)oxy)pyridin-3-yl)-5-(4-fluorophenyl)-1-isopropyl-4-oxo-1,4-dihydropyridine-3-carboxamide] | 0.006 | 0.0035 | 0.035 | 0.0077 |
| COc1ccc2nccc(Oc3ccc(NC(=O)c4cn(C(C)C)c(C)c(-c5ccc(F)cc5)c4=O)nc3)c2c1 [Example 33, 5-(4-fluorophenyl)-1-isopropyl-N-(5-((6-methoxyquinolin-4-yl)oxy)pyridin-2-yl)-6-methyl-4-oxo-1,4-dihydropyridine-3-carboxamide] | 0.01 | 0.0046 | 0.0202 | 0.0133 |
